From patent US20040138160A1, “Preventive/therapeutic method for cancer” (priority 2001, published 2004)

Columns and labels:
EGFR = EGFR (Homo sapiens, UniProt P00533); assay: cell-based
Protocol: (§1) For consideration of the action on a receptor-type tyrosine kinase, A-431 cells or NIH3T3 cells were sown in a 24 multi-well plate (2×10^5 cells/well) and cultured overnight in a carbon dioxide gas incubator (5% CO2, 37° C.). The medium was changed to a serum-free medium and the cells were further incubated for one day. […] The culture medium was removed 5 min later and SDS sample buffer was added to give a cell lysate (200 μL). For consideration of the action on a non-receptor type tyrosine kinase, A431 (Jak1), Jurkat (Src) or Namalwa cells (Blk) were sown in a 6-well multi-well plate (5×10^5 cells/well) and cultured overnight in a carbon dioxide gas incubator (5% CO2, 37° C.).

Jak1 = Jak1 (Homo sapiens, UniProt P23458); assay: cell-based
Protocol: as §1

blk = blk (Homo sapiens, UniProt P51451); assay: cell-based
Protocol: as §1

FGFR = details: read-out: IC50 (μmol/L) FGFR; NIH3T3 cells, FGF 20 ng/mL; compound 2 hr
Protocol: as §1

PDGFR = details: read-out: IC50 (μmol/L) PDGFR; NIH3T3 cells, PDGF 20 ng/mL; compound 2 hr
Protocol: as §1

[1] = system: tyrosine kinase activity other than HER2; details: read-out: IC50 value for tyrosine kinase activity other than HER2; in every case (EGFR, FGFR, PDGFR, Jak1, Src, blk)
Protocol: as §1

[2] = system: HER2 high expression human breast cancer cells BT-474; details: 1 μmol/L, cultured ~5 days
Protocol: After the culture, the culture medium was removed and a cell suspension was prepared by a trypsin treatment and the cells were fixed with 70% ethanol. The DNA of the cells was stained with propidium iodide and the DNA amount was measured by a flow cytometer. The cells with a decreased amount of DNA are apoptotic (cell death) cells.

HER2 = HER2 (Homo sapiens, UniProt P04626); details: BT-474 tumor in nude mice; 20 mg/kg/day orally 14 days, then 10 mg/kg; tumor sampled four hours later
Protocol: Four hours later, the tumor was sampled and a tumor homogenate was prepared.

[3] = system: HER2 high expression human breast cancer cell BT-474; assay: Anti-tumor effect, combined use (BT-474 cancer-bearing nude mice); format: in vivo, mouse
From the text: Formula: Tumor volume=longer diameter×shorter diameter×shorter diameter×(1/2)

[4] = system: HER2 expression human non-parvicellular lung cancer A549 cells; assay: Anti-tumor effect against HER2 expression tumor in nude mouse: A549; format: in vivo; details: HER2 score 1+, dose 20 mg/kg/day orally, divided into two per day, 14 days
Protocol: Immediately after transplantation and day 7 after the transplantation, estradiol dipropionate (5 mg/kg solution, 50 μL) was intramuscularly administered to the hind leg with the aim of enhancing the survival rate of the tumor. […] HER2 high expression human gastric cancer cells 4-1ST was a in vivo subcultured tumor and seed tumor piece (ca. 50 mm^3) was subcutaneously transplanted into the nude mouse.
(§2) Formula: tumor volume=longer diameter×shorter diameter×shorter diameter×(1/2)

[5] = system: HER2 expression human kidney cancer ACHN cells; details: renal, HER2 score 1+; dose 20 mg/kg/day orally, divided into two per day, 14 days
Protocol: (§3) Immediately after transplantation and day 7 after the transplantation, estradiol dipropionate (5 mg/kg solution, 50 μL) was intramuscularly administered to the hind leg with the aim of enhancing the survival rate of the tumor. HER2 expression human non-parvicellular lung cancer A549 cells were suspended in Matrigel solution and 5,000,000 cells were subcutaneously transplanted into the chest of female BALB/c nude mouse (6 weeks of age). HER2 expression human kidney cancer ACHN cells (2,000,000 cells) were subcutaneously transplanted into the chest of nude mouse. HER2 high expression human gastric cancer cells 4-1ST was a in vivo subcultured tumor and seed tumor piece (ca. 50 mm^3) was subcutaneously transplanted into the nude mouse.
(§4) An increase in the tumor volume from that before administration to that on the next day of the final administration was compared to that of the control group and an anti-tumor effect was studied. In addition, the tumor volume was calculated from the following equation:
as §2
(§5) A ratio of the value obtained by subtracting a tumor volume on the day of the administration initiation from the tumor volume on the next day of the completion of the administration in the control group, and the value obtained by subtracting the tumor volume on the day of the administration initiation from the tumor volume on the next day of the completion of the administration was determined as a growth rate (T/C (%)).

[6] = system: HER2 high expression human breast cancer cells BT-474; details: HER2 score 3+, dose 20 mg/kg/day orally, divided into two per day, 14 days
Protocol: as §3, §4, §2, §5

[7] = system: HER2 high expression human gastric cancer cells 4-1ST; details: HER2 score 3+, dose 15 mg/kg/day orally, divided into two per day, 14 days
Protocol: as §3, §4, §2, §5

MDA-MB-231 = details: breast, HER2 score 0; dose 20 mg/kg/day orally, divided into two per day, 14 days
Protocol: as §4, §2, §5

[8] = system: HER2 expression cells (Ma-46); details: cultured 3 days, cells counted
Protocol: (§6) 1) Cell growth inhibitory action; Each cell line was sown in a 24-well-multi-well plate (5×10^4 cells/well) and cultured overnight in a carbon dioxide gas incubator (5% CO2, 37° C.).

[9] = system: HER2 non-expression cells (Ma-1); details: cultured 3 days, cells counted
Protocol: as §6

[10] = system: HER2/EGF-R co-expression cells (A549); details: cultured 3 days, cells counted
Protocol: as §6

Akt = assay: cells; details: Homo sapiens, BT-474, 2 h, read-out: inhibition of activation of Akt (IC50 value)

EGFR, sequence (P00533 25-1210): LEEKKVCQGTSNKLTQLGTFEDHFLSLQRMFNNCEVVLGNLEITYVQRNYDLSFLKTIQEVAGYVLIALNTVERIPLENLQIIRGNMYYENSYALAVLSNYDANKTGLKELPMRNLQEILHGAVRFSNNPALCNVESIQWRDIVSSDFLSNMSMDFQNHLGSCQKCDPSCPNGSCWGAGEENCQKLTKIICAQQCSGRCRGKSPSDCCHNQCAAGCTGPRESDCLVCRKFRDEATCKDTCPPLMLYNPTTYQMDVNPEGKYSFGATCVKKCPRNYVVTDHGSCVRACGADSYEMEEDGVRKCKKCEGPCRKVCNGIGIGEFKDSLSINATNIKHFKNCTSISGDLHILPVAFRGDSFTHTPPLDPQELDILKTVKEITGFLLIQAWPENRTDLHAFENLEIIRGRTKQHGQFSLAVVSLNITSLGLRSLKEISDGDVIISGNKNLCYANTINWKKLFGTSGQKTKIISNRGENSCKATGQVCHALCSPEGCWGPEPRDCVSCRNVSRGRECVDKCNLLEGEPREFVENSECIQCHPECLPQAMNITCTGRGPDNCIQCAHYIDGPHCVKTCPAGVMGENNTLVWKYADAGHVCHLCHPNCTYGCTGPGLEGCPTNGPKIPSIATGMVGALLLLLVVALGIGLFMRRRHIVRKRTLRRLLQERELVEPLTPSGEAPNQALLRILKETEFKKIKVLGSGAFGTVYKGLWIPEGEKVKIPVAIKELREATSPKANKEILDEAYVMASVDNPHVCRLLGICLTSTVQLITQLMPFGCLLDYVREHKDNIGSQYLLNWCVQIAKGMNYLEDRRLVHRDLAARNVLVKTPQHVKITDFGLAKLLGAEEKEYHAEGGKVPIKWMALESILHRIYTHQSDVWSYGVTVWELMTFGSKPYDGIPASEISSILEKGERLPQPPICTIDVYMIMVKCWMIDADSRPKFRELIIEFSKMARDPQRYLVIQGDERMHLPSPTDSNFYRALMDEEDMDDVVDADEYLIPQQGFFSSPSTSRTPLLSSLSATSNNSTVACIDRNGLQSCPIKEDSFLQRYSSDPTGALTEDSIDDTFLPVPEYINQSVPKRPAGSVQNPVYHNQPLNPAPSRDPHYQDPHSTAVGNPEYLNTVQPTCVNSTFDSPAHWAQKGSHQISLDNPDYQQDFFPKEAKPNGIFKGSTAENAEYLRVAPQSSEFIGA
HER2, sequence (P04626 23-1255): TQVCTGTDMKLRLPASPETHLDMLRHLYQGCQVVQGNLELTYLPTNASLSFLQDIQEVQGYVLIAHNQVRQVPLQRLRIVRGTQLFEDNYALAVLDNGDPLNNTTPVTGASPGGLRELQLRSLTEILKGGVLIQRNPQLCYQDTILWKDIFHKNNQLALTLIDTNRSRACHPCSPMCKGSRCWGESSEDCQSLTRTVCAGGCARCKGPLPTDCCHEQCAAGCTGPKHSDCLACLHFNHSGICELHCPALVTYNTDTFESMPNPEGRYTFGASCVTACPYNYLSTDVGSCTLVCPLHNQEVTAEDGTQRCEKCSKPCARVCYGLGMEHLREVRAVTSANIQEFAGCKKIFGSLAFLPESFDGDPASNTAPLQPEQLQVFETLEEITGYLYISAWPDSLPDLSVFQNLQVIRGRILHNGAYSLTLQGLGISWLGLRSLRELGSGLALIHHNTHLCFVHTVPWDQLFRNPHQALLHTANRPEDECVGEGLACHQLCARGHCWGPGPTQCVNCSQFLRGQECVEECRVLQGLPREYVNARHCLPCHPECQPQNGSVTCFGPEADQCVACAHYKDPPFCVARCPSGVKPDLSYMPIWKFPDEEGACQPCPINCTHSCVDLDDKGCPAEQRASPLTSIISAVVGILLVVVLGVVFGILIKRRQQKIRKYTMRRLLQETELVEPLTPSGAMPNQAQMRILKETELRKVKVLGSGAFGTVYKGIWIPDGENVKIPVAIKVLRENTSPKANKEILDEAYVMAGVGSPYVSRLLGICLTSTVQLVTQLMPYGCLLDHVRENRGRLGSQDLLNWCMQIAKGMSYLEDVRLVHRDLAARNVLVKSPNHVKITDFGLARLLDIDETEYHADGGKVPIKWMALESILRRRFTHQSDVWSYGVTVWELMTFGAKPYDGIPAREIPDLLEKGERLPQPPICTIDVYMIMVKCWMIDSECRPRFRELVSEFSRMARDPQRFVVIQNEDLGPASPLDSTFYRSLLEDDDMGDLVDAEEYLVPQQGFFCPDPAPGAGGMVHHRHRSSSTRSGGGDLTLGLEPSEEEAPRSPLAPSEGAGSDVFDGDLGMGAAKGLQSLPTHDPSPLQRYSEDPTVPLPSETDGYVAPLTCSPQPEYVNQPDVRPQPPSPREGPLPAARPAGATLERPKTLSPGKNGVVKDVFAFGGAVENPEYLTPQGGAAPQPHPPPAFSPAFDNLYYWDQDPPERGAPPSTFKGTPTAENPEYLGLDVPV
blk, sequence (P51451 whole entry): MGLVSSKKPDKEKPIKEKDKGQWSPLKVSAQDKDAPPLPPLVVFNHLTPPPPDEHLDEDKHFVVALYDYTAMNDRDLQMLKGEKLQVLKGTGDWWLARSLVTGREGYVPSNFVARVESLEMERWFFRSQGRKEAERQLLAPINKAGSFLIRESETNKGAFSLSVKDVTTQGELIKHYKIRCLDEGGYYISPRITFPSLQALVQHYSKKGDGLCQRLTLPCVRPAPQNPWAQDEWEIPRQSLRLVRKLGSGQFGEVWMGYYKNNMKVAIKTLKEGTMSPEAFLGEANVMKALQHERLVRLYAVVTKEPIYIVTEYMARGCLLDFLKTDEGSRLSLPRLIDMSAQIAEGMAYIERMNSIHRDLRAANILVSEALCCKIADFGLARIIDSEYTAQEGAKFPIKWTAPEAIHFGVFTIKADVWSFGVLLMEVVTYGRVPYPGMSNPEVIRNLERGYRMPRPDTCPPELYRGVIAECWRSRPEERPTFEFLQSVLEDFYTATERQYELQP
Jak1, sequence (P23458 whole entry): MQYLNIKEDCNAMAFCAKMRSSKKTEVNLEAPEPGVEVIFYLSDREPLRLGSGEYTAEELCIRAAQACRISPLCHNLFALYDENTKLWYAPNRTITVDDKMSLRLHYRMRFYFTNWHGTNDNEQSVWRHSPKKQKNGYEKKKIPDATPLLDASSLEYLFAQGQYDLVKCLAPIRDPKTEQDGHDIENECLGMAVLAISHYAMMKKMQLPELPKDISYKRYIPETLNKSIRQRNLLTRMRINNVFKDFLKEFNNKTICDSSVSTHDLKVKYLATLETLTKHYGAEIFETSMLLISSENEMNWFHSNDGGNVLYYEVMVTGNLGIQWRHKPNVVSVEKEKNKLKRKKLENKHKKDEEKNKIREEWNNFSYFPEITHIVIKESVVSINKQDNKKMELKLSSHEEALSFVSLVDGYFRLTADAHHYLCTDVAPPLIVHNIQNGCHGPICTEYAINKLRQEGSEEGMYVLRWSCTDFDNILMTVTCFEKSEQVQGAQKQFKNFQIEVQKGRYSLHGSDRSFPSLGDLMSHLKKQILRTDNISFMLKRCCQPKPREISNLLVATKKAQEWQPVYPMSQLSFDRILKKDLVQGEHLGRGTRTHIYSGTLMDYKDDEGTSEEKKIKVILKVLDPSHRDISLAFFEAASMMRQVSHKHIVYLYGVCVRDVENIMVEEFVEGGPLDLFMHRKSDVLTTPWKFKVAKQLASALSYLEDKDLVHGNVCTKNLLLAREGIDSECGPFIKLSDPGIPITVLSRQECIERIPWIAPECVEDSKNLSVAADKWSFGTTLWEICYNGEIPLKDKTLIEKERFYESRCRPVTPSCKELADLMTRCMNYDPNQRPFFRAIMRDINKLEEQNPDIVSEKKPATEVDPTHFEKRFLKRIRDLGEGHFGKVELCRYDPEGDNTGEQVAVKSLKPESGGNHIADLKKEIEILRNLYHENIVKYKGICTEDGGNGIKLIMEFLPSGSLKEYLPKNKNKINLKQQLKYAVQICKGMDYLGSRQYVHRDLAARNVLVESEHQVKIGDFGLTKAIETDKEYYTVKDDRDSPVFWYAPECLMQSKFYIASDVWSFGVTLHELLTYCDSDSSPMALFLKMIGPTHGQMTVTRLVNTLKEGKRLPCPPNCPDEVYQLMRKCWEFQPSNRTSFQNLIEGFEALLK

## FC(F)(F)c1ccc(/C=C/c2nc(COc3ccc(CCCCn4ccnn4)cc3)co2)cc1 [Compound B4, 1-(4-{4-[(2-{(E)-2-[4-(trifluoromethyl)phenyl]ethenyl}-1,3-oxazol-4-yl)methoxy]phenyl}butyl)-1H-1,2,3-triazole]
EGFR
  IC50: > 25 µM
Jak1
  IC50: > 25 µM
blk
  IC50: > 25 µM
FGFR
  IC50: > 25 µmol/L
PDGFR
  IC50: > 25 µmol/L
[1]
  IC50: > 25 µM
[2]
  cell death induction: induced cell death
HER2
  intra-tumor HER2 phosphorylation (per tumor weight), % of the control group: 13%
[3]; compound B4 20 mg/kg/day orally, divided into two per day, 14 days, trastuzumab 10 mg/kg intraperitoneally twice a week, 2 weeks, or both
  growth rate T/C (%): −18%
[3]; same regimens as T/C
  cases with significant decrease in the tumor volume: 5 cases out of 5 cases
  decrease in the tumor volume (% reduction): 13-30%
[4]
  Compound B4 T/C (%), A549: 22%
[5]
  Compound B4 T/C (%), ACHN: −16%
[6]
  Compound B4 T/C (%), BT-474: −18%
[7]
  Compound B4 T/C (%), 4-1ST: 4%
MDA-MB-231
  Compound B4 T/C (%), MDA-MB-231: 87%
[8]
  cell growth inhibitory action on HER2 expression cells (Ma-46): strong cell growth inhibitory action
[9]
  cell growth inhibitory action on HER2 non-expression cells (Ma-1): did not show a cell growth inhibitory action
[10]
  cell growth inhibitory action on HER2/EGF-R co-expression cells (A549): strong cell growth inhibitory action
Akt
  IC50: 0.0019 µM
